# Test results as given in patent US20070148712A1, “Breast cancer and prostate cancer assessment” (Iowa State University Research Foundation, Inc., priority 2005, published 2007).
# Experiments:
# [1] = tested on: 2E9 MAb; assay: Indirect competitive ELISA measuring equilibrium association constant and association/dissociation rates of MAb-hapten complexes; format: binding, mouse; conditions: for KA times higher than KA measured for the 4-OHE2-1-N3Ade adduct: comparator 4-OHE2-1-N3Ade; for KA higher by a factor than that obtained for NAcCys: comparator NAcCys; for Association constant, KA / Association rate, kon / Dissociation rate, koff: in the presence of 2E9 MAb, indirect competitive ELISA; for Association constant, KA: equilibrium; for 1/koff: dissociation time; for KA times smaller than the KA obtained for 4-OHE1-2-NAcCys: comparator 4-OHE1-2-NAcCys
# Experimental: The equilibrium constant and the kinetic off- and on-rates for the analyte and the reporter molecule of interest must be known. The equilibrium association constants (KA) and association (kon)/dissociation (koff) rates for 4-OHE2-2-NAcCys and 4-OHE2-2-NAcCys-SAMSA conjugates are given in Table I, which also provides information on other closely related analytes, such as 4-OHE2, NAcCys, and 4-OHE2-1-N3Ade adduct. All values listed in Table I were determined using an indirect competitive ELISA. The value of KA for 4-OHE2-2-NAcCys-SAMSA was confirmed by an equilibrium dialysis method.
# An ELISA was used to measure the association/dissociation rate constants of MAb-hapten (i.e., MAb-4-OHE1-2-NAcCys) and/or association/dissociation rate constants of related analytes. The MAb and suitable hapten(s) were mixed in solution to initiate the equilibrium reaction. At different time intervals, the amount of the free MAb in the reaction mixture was determined by an indirect ELISA. The association rate constants for 4-OHE1-2-NAcCys, 4-OHE1, NAcCys, and 4-OHE1-1-N3Ade were estimated by nonlinear regression against an equation introduced from the derivation of the mass balance of MAb-antigen/related analyte interaction (Zhuang et al., J Biosci. Bioeng. 92, 330-336 (2001); Foote et al., Proc. Natl. Acad. Sci. USA 92, 1254-1256 (1995); Goldbaum et al., J Immunol. 162, 6040-6045 (1999); Northrup et al., Proc. Natl. Acad. Sci. USA 89, 3338-3342 (1992)).
# To determine the bound fraction of the antibody by ELISA, 3 rows and 8 columns of the microtiter plate were incubated with sufficient concentration of antigen to saturate the wells. After washing the plate with PBS 3 times, 4 rows of the plate including 3 rows coated with the antigen were blocked with 1% non-fat dried milk, 0.01% Triton-X100 in PBS for 3 hrs. Then the plate was washed with PBS with Triton-X100 (0.01%) 3 times. Equal volumes (160 μL) of the antigen (or related analyte) and PBS were mixed, and the mixture was put into the first well of the row that was blocked but not coated with the antigen (non-coated row).
# The average absorbance of this column (Ab) measured in the last step of the ELISA corresponds to the blank. Equal volumes (160 μL) of the antibody solution and PBS were mixed, and the mixture was put into the last (8th) well of the non-coated row. The average absorbance of this column (Ao) corresponds to the total concentration of the antibody. Equal volumes of the antibody solution and antigen (or related analyte) solution were mixed quickly, and the mixture was immediately put into the second well of the non-coated row. At appropriate time intervals (after 10, 20, 23, 26 and 28 min), a new mixture of the antibody and hapten (or related analyte) solution were mixed quickly, immediately put into the wells of the non-coated row from the […]. The average absorbance of these columns (At) corresponds to the concentration of the free antibody at t=30, 20, 10, 7, 4 and 2 min for the […], respectively. Two min after the 7th well was filled with the mixture, using an eight-channel Pipetman, the mixtures on the row were quickly dispensed into the 3 rows that were coated with the antigen (or related analyte, 50 μL each). After 1 min the mixture was discarded and the plate was washed with PBS with Triton-X100 (0.01%) 3 times. The secondary antibody solution (HRP-conjugated) was added to the plate (50 μL), and the plate was incubated at 37° C. for 1 h. After washing with PBS and Triton-X100 (0.01%) 3 times, the substrate was added to the plate (50 μL). After incubation for 10 min at room temperature, the absorbance at 405 nm was measured.
# Association constants KA for 4-OHE1 and NAcCys were also determined and are 2.5·10^5 and 2.1·10^6 M^−1, respectively. […] When the time required for the equilibrium reaction between the antigen and the antibody is shorter, one can detect or quantify the hapten faster. […]
# [2] = tested on: MAb against 4-OHE2-1-N3Ade; assay: Association constant of the MAb developed against 4-OHE2-1-N3Ade; format: binding
# [3] = molecular target: 2E9 MAb; assay: Competitive ELISA for 4-OHE1-2-NAcCys: inhibition of 2E9 MAb binding to immobilized antigen; set-up: species or system mouse; conditions: for IC50: wells coated with OA-4-OHE1(E2)-2-NAcCys-16a,β-MCC, regression analysis, read-out: I50 (quantity producing 50% inhibition of MAb binding in the ELISA)
# Experimental: FIG. 5 is a diagram depicting inhibition profiles obtained for 4-OHE1-2-NAcCys (curve 1); NAcCys (curve 2), 4-OHE1(E2) (curve 3), and 4-OHE1-1-N3Ade (curve 4) using the 2E9 MAb in the competitive ELISA assay. Competitor-mediated reduction of MAb binding was expressed as % inhibition vs. untreated MAb and then plotted as a function of log quantity of competitor per well of the ELISA plate.
# Wells were coated with OA-40HE1(E2)-2-NAcCys-16a,β-MCC, 500 ng/mL, 50 μL/well overnight, and blocked with 1% non-fat dried milk, 0.01% Triton-X100 in PBS for 2 h at 37° C. Competition curves were generated as described below. MAb and competitor molecules 4-OHE1(E2)-2-NAcCys (1), NAcCys (2), 4-OHE1(E2) (3), and 4-OHE1(E2)-1-N3Ade (4) were added to the wells at the same time and allowed to react with immobilized antigen for one hour before secondary antibody was added. The plates were washed with PBS with Triton-X100 (0.01%). Secondary antibody labeled with horseradish peroxidase (HRP) was used according to manufacturer's (BRL, Inc.) recommendations and incubated at 37° C. for 1 h. Plates were washed again, 2,2′-azino-bis(3-ethylbenzthiazoline-6-sulfonic acid) (ABTS) was added, and the plates were read at 405 nm on a BioRad-EL800 plate reader. The specificity of the 2E9 MAb raised against 4-OHE1(E2)-2-NAcCys was confirmed, and cross-reactivity to a number of related compounds was established.
# The results are shown in FIG. 5, where the competitor-mediated reduction of MAb binding is expressed as % inhibition versus untreated MAb and plotted as a function of the concentration of competitor in the wells of the ELISA plate. Inhibition curves were developed for several analytes of interest; the I50's (quantity producing 50% inhibition of MAb binding in the ELISA) of these analytes were determined by regression analysis. […] For example, the I50 of 4-OHE-1-N3Ade (I50=1.5·10^−5M) was about 2700 times higher than the I50 of the 4-OHE1-2-NAcCys (I50=5.6·10^−9M).
Compound,"Association constant, KA [1] [M⁻¹]",1/koff ([1]; 2E9 MAb) [s],"Association rate, kon [1] [M⁻¹ s⁻¹]","Dissociation rate, koff [1] [s⁻¹]",KA times smaller than the KA obtained for 4-OHE1-2-NAcCys ([1]; 2E9 MAb),also measured
4-OHE1(E2)-2-NAcCys,1.8e+08,–,–,–,–,"KA times higher than KA measured for the 4-OHE2-1-N3Ade adduct ([1]; 2E9 MAb): about 2,700; KA higher by a factor than that obtained for NAcCys ([1]; 2E9 MAb): 100"
C[C@]12CC[C@@H]3c4c(-n5cnc(=N)c6[nH]cnc65)cc(O)c(O)c4CC[C@H]3[C@@H]1CC[C@@H]2O [4-OHE2-1-N3Ade],67000,10,6500,0.097,–,KA [2]: 2e+08 M⁻¹
"CC(=O)N[C@@H](CSc1cc2c(c(O)c1O)CC[C@@H]1[C@@H]2CC[C@]2(C)[C@@H](O)CC[C@@H]12)C(=O)O [4-OHE2-NAcCys, 4-OHE2-2-NAcCys]",1.8e+08,391,460000,0.0026,–,"dissociation time 1/koff ([1]; 2E9 MAb): ~6.5 min; KA times higher than KA measured for the 4-OHE2-1-N3Ade adduct ([1]; 2E9 MAb): about 2,700; KA higher by a factor than that obtained for NAcCys ([1]; 2E9 MAb): 100; Association constant, KA ([1]; listed as 4-OHE2-2-NAcCys): 1.8e+08 M⁻¹"
"CC(=O)N[C@@H](CS)C(=O)O [NAcCys, N-acetylcysteine]",2.1e+06,27,77000,0.037,~86,–
CC(=O)NC(CSc1cc2c(c(O)c1O)CCC1C2CCC2(C)C(=O)CCC12)C(=O)O (stereo not drawn) [4-OHE1-2-NAcCys],–,–,–,–,–,IC50 [3]: 0.0056 µM
C[C@]12CC[C@@H]3c4ccc(O)c(O)c4CC[C@H]3[C@@H]1CC[C@@H]2O [4-OHE2],250000,17,15000,0.062,–,–
C[C@]12CC[C@@H]3c4c(-n5cnc(=N)c6[nH]cnc65)cc(O)c(O)c4CC[C@H]3[C@@H]1CCC2=O [4-OHE1-1-N3Ade],–,–,–,–,2700,"Association constant, KA ([1]; listed as 4-OHE1-N3Ade): 67000 M⁻¹; I50 times higher than the I50 of 4-OHE1-2-NAcCys ([3]; comparator 4-OHE1-2-NAcCys): about 2700; IC50 [3]: 15 µM"
4-OHE2-2-NAcCys-SAMSA [4-OHE2-NAcCys-SAMSA],5e+07,185,270000,0.0054,–,–
C[C@]12CC[C@@H]3c4ccc(O)c(O)c4CC[C@H]3[C@@H]1CCC2=O [4-OHE1],250000,–,–,–,about 720,–
